According to patent US20200163984A1, “USE OF ISOVALERYL SPIRAMYCIN I, II AND/OR III IN MANUFACTURING MEDICAMENT FOR TREATING AND/OR PREVENTING TUMOR, AND MEDICAMENT” (SHENYANG FUYANG PHARMACEUTICAL TECHNOLOGY CO., LTD., priority 2017, published 2020):

System: transplanted tumor of human glioblastoma cell A172
Conditions: 50 mg/kg
Experimental: Then cell concentration was adjusted to 1×10^7/ml with matrigel, then each nude mouse was inoculated subcutaneously with 0.2 ml of cells at its right armpit and recorded as the first day of inoculation. When the tumor grows to be greater than or equal to 100 mm^3, the mice were randomly divided into 11 groups with 6 mice in each group: a model group, a temozolomide group, […], […], […] Each group was continuously administered intragastrically for 30 days with a dose of 20 ml/kg. The mice were sacrificed the next day after drug withdrawal and the indicators were tested. The long diameter and short diameter of the tumor, and the body weight of each mouse were recorded every 3 days from drug administration to nude mouse sacrifice.
The body weight of the nude mice and the long diameter (a) and short diameter (b) of the transplanted tumor were measured every 3 days, and the tumor volume (v), relative tumor volume (RTV) and relative tumor proliferation rate (T/C) are calculated respectively according to the following formulas, wherein V=a×b^2/2; RTV=V/V0 (V0 is the tumor volume before administration, V is the tumor volume before sacrifice), and T/C (%)=treatment group RTV/model control group RTV×100%.
Each mouse was weighed and sacrificed. After the tumor was completely stripped off from the body of the mouse, the non-tumor tissues such as blood stains and fat were removed to weigh the tumor and calculate the tumor growth inhibition rate. The average tumor weight of each group of mice is used as an indicator of efficacy. Tumor growth inhibition rate (%)=(1−the average tumor weight of the treatment group/the average tumor weight of the model group)×100%.

Cn1nnc2c(C(N)=O)ncn2c1=O [temozolomide, reference compound]
Inhibition Rate (%) (A172 nude mice): 68.89% | Relative Tumor Proliferation Rate (T/C) (A172 nude mice): 61.35% | Relative Tumor Volume (RTV) (A172 nude mice): 4.12 ± 2.03 | Tumor Weight (A172 nude mice): 0.43 ± 0.06 g | Tumor Volume (mm3) (d 1) (A172 nude mice, d1): 116.6 ± 10.91 mm3 | Tumor Volume (mm3) (d30) (A172 nude mice, d30): 482.11 ± 89.74 mm3 | Body Weight (g) (d1) (mouse, in vivo): 21.07 ± 0.57 g | Body Weight (g) (d30) (mouse, in vivo): 19.83 ± 1.24 g
